PubChem BioAssay AID732 (Emory University Molecular Libraries Screening Center, 2007)
Where “and” joins values, the source holds several entries; their conditions need not be identical. Equal values may be shown once. Calls of active or inactive are those of the source. No rule for the calls is given here.

Test system: in vivo angiogenesis, blood vessel count
Assay: angiogenesis inhibition in living animals, in vivo study, HTS (AID 732);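 also: zebrafish embryos dosed at one day post fertilization; 0% = reference inhibitor and 100% = plate mean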
Conditions: hits give low values;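 tested at 30 µM in the well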

Structure (SMILES) | vessel count % control
COc1ccc2[nH]c3c(c2c1)CCNC3 | 137% (inactive)
CC(=O)[C@H]1CCC2C3CC=C4C[C@@H](OS(=O)(=O)O)CC[C@]4(C)C3CC[C@@]21C (stereo partly specified) | 85% (inactive)
NS(=O)(=O)c1cc2c(cc1Cl)NC=NS2(=O)=O | 135% (inactive)
Cc1nc2ccccn2c(=O)c1CCN1CCC(C(=O)c2ccc(F)cc2)CC1 | 94.9% (inactive)
CNC(=O)[C@H]1O[C@@H](n2cnc3c(NCc4ccc(N)cc4)ncnc32)C(O)[C@H]1O (stereo partly specified) | 134% (inactive)
CCCn1c(=O)c2[nH]c(-c3ccc(S(=O)(=O)O)cc3)nc2n(CCC)c1=O | 70.2% (inactive)
COc1ccc(OC)c(C(O)C(C)N)c1 (stereo unspecified) | 94.8% (inactive)
NC(=O)CC[C@H](N)C(=O)O | 104% (inactive)
CN1C2CCC1CC(OC(=O)c1c[nH]c3ccccc13)C2 (stereo unspecified) | 91.1% (inactive)
CC(C)(Sc1ccc(CCN(CCCCC2CCCCC2)C(=O)NC2CCCCC2)cc1)C(=O)O | 103% (inactive)
CC(NC(C)(C)C)C(=O)c1cccc(Cl)c1 (stereo unspecified) | 71.1% (inactive)
C[C@]12C=CC(=O)C=C1CC[C@H]1[C@@H]3C[C@@H](O)[C@](O)(C(=O)CO)[C@@]3(C)C[C@H](O)[C@@]12F | 129% (inactive)
c1ccc2cc(CC3=NCCN3)ccc2c1 | 120% (inactive)
OC[C@H]1NC[C@@H](O)[C@@H]1O | 96% (inactive)
CCCCCCCCCC(=O)NC(CN1CCOCC1)[C@H](O)c1ccccc1 (stereo partly specified) | 74% (inactive)
N=C(N)SCCN | 110% (inactive)
OCC1NCC(O)C(O)C1O (stereo unspecified) | 97.9% (inactive)
Oc1ccc(Cn2cc[nH]c2=S)cc1 | 92.9% (inactive)
NC(Cn1oc(=O)[nH]c1=O)C(=O)O (stereo unspecified) | 129% (inactive)
NCCc1c[nH]c2ccccc12 | 118% (inactive)
N=C(N)SCCc1ccc(CCSC(=N)N)cc1 | 72.6% (inactive)
C#CCOC(=O)C1=CCCN(C)C1 | 106% (inactive)
Cc1ccc(=O)n(-c2ccccc2)c1 | 92.7% (inactive)
CC1OC1P(=O)(O)O (stereo unspecified) | 102% (inactive)
CC(Cc1ccc(O)cc1)NCC(O)c1cc(O)cc(O)c1 (stereo unspecified) | 114% (inactive)
Cn1cnc(CCN)c1 | 99.8% (inactive)

Structure (SMILES) | vessel count % control
COc1ccc(/C=C/C(=O)Nc2ccccc2C(=O)O)cc1OC | 100% (inactive)
CC(C)NCC(O)c1ccc(NS(C)(=O)=O)cc1 (stereo unspecified) | 95.6% (inactive)
CNC(=O)c1cc2c(cn1)[nH]c1ccccc12 | 101% (inactive)
CC(C)NCC(O)c1cc(O)cc(O)c1 (stereo unspecified) | 91.8% (inactive)
O=c1[nH]c2cc(Cl)c(Cl)cc2[nH]c1=O | 109% (inactive)
C=C/C(C)=C/[C@@]1(C)SC(=O)C(C)=C1O | 97.7% (inactive)
CC(=O)N1CCN(c2ccc(OC[C@H]3CO[C@](Cn4ccnc4)(c4ccc(Cl)cc4Cl)O3)cc2)CC1 | 113% (inactive)
NCC(O)c1ccc(O)cc1 (stereo unspecified) | 103% (inactive)
O=C(CCNNC(=O)c1ccncc1)NCc1ccccc1 | 67.2% (inactive)
CCCn1cnc2c1c(=O)n(CCCCC(C)=O)c(=O)n2C | 107% (inactive)
CC12CC3CC(C)(C1)CC(N)(C3)C2 | 128% (inactive)
O=S(=O)(c1cccc2c(I)cccc12)N1CCCNCC1 | 114% (inactive)
NC(=NCc1ccc(Cl)c(Cl)c1)NC(=O)c1nc(Cl)c(N)nc1N | 108% (inactive)
CNc1ccc2oc(C[C@H]3O[C@@]4(CC[C@H]3C)O[C@H]([C@H](C)C(=O)c3ccc[nH]3)[C@H](C)C[C@H]4C)nc2c1C(=O)O | 0% (inactive)
c1ccc(-c2ccccn2)nc1 | 109% (inactive)
Nc1ncnc2c1nc(Br)n2C1OC2COP(=O)(O)O[C@@H]2C1O (stereo partly specified) | 101% (inactive)
Cc1cc(O)c2c(c1)C(=O)c1cc(O)cc(O)c1C2=O | 87.5% (inactive)
CC1=C(CC(=O)O)c2cc(F)ccc2/C1=C\c1ccc(S(C)(=O)=O)cc1 | 112% (inactive)
N[C@@H](Cc1cnc[nH]1)C(=O)O | 107% (inactive)
Cc1nc(N=Nc2cc(S(=O)(=O)O)c3cc([N+](=O)[O-])cc(S(=O)(=O)O)c3c2)c(COP(=O)(O)O)c(C=O)c1O | 93.5% (inactive)
COc1cccc(-c2cc(=O)c3ccccc3o2)c1N | 73.8% (inactive)
CCN(CC)C(=O)N[C@@H]1C[C@@H]2c3cccc4[nH]cc(c34)C[C@H]2N(C)C1 | 111% (inactive)
NC(=O)OCC(COC(N)=O)c1ccccc1 | 62.7% (inactive)
COc1[nH]c2ccc(F)cc2c1C(=O)OCC1CCN(CCNS(C)(=O)=O)CC1 | 99.6% (inactive)
CC(C)(C)NCC(O)c1ccccc1Cl (stereo unspecified) | 130% (inactive)
O=C1NC(=O)C(c2ccccc2)(c2ccccc2)N1 | 92.7% (inactive)

Structure (SMILES) | vessel count % control
O=c1ccc2ccc(O)c(O)c2o1 | 121% (inactive)
CN1C2CCC1CC(NC(=O)c1nn(C)c3ccccc13)C2 (stereo unspecified) | 104% (inactive)
Cc1ccc(S(=O)(=O)N[C@@H](CCCCN)C(=O)CCl)cc1 | 133% (inactive)
CN(C)CCCCSC(=N)N | 105% (inactive)
NC1(C(=O)O)CC1 | 127% (inactive)
C[N+](C)(C)CC#CCOC(=O)Nc1cccc(Cl)c1 | 81.2% (inactive)
CC/C(=C(\c1ccccc1)c1ccc(OCCN(C)C)cc1)c1ccccc1 | 64.7% (inactive)
CNC1(C)C2CCC(C2)C1(C)C (stereo unspecified) | 107% (inactive)
COc1cc2nc(N3CCN(C(=O)c4ccco4)CC3)nc(N)c2cc1OC | 107% (inactive)
COc1ccc2c(c1)c(CC(=O)N1CCOCC1)c(C)n2C(=O)c1ccc(Cl)cc1 | 55% (inactive)
C#CC(N)CCC(=O)O (stereo unspecified) | 80% (inactive)
CCN1/C(=C/C(C)=O)Sc2ccc(OC)cc21 | 98% (inactive)
CN1CCC[C@H]1c1cccnc1 | 120% (inactive)
Oc1[nH]c2ccccc2c1C1=Nc2ccc(Br)cc2/C1=N\OCCN1CCNCC1 | 86.4% (inactive) and 40.6% (inactive)
c1ccc(CCCN2CCN(CCOC(c3ccccc3)c3ccccc3)CC2)cc1 | 101% (inactive)
O=C1CCC(c2ccc(-n3ccnc3)cc2)=NN1 | 86% (inactive)
O=Nc1c(-c2c(O)[nH]c3ccccc23)[nH]c2ccc(Br)cc12 | 67.5% (inactive)
O=C(O)/C=C/c1ccc(O)c(O)c1 | 108% (inactive)
N=C(N)c1ccc(N)cc1 | 114% (inactive)
NNC(N)=O | 126% (inactive)
CC(=O)N[C@H](C(=O)O)C(C)(C)SN=O | 94.3% (inactive)
Cn1ccc2cc3c(cc21)CCN3C(=O)Nc1cccnc1 | 88% (inactive)
Cc1cnc(C(=O)NCCc2ccc(S(=O)(=O)NC(=O)NC3CCCCC3)cc2)cn1 | 106% (inactive)
NC(N)=NCc1cccc(I)c1 | 98.4% (inactive)
